# Source: ChEMBL document CHEMBL1149225, “Synthesis and evaluation of substituted 4-alkoxy-2-aminopyridines as novel neuropeptide Y1 receptor antagonists” (Bioorg Med Chem Lett, 2004)
# Legend:
# [1] = molecular target: T1, Neuropeptide Y receptor type 1 (Homo sapiens, UniProt P25929); assay: Binding affinity against human recombinant NPY Y1 receptor in CHO/dhFr- cell membranes using [125I]PYY
# T1 sequence (P25929 whole entry): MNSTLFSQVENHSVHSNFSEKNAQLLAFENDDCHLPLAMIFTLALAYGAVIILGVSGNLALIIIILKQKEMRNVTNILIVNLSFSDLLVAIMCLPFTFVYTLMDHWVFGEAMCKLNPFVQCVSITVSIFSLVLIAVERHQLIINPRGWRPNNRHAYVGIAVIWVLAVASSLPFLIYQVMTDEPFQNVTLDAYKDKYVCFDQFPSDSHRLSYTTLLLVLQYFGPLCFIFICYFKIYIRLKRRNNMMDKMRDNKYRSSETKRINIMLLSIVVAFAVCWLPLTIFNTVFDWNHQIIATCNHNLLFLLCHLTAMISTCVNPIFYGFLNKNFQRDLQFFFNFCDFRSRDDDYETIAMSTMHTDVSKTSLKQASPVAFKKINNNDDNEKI
# CHO = assay: Inhibitory concentration against 1 nM NPY induced [Ca2+] increase in CHO/dhFr- cells expressing recombinant human Y1 receptor; assay type: functional, cell-based; details: Cricetulus griseus
IC50 [1] [nM],Structure (SMILES),IC50 (CHO) [nM]
17,CCc1sc(CCc2cc(OCC3(C)CC3)cc(NCc3cc(Cl)cc(NC(=O)OC(C)C)c3)n2)nc1C,–
17,CCCOc1cc(CCc2nc(C)c(CC)s2)nc(NCc2cc(Cl)cc(NC(=O)OC(C)C)c2)c1,–
29,CCc1sc(CCc2cc(OC3CCCCC3)cc(NCc3cc(Cl)cc(NC(=O)OC(C)C)c3)n2)nc1C,–
6.5,CCc1sc(CCc2cc(OCCCc3cccnc3)cc(NCc3cc(Cl)cc(NC(=O)OC(C)C)c3)n2)nc1C,46
4.7,CC/C=C\CCOc1cc(CCc2nc(C)c(CC)s2)nc(NCc2cc(Cl)cc(NC(=O)OC(C)C)c2)c1,64
1.4,CCc1sc(CCc2cc(N3CCOCC3)cc(NCc3cc(Cl)cc(NC(=O)OC(C)C)c3)n2)nc1C,2.9
72,CCCCCCCOc1cc(CCc2nc(C)c(CC)s2)nc(NCc2cc(Cl)cc(NC(=O)OC(C)C)c2)c1,–
12,CCc1sc(CCc2cc(OC(C)C)cc(NCc3cc(Cl)cc(NC(=O)OC(C)C)c3)n2)nc1C,–
11,CCc1sc(CCc2cc(OC3CCC3)cc(NCc3cc(Cl)cc(NC(=O)OC(C)C)c3)n2)nc1C,–
20,CCc1sc(CCc2cc(OCCCc3ccccc3)cc(NCc3cc(Cl)cc(NC(=O)OC(C)C)c3)n2)nc1C,–
63,CCCCCCOc1cc(CCc2nc(C)c(CC)s2)nc(NCc2cc(Cl)cc(NC(=O)OC(C)C)c2)c1,–
5.5,CCc1sc(CCc2cc(OC(CC)CC)cc(NCc3cc(Cl)cc(NC(=O)OC(C)C)c3)n2)nc1C,33
55,CCc1sc(CCc2cc(OCC(C)(C)C)cc(NCc3cc(Cl)cc(NC(=O)OC(C)C)c3)n2)nc1C,–
16,CCCCOc1cc(CCc2nc(C)c(CC)s2)nc(NCc2cc(Cl)cc(NC(=O)OC(C)C)c2)c1,–
237,CCc1sc(CCc2cc(OCc3ccccc3)cc(NCc3cc(Cl)cc(NC(=O)OC(C)C)c3)n2)nc1C,–
234,CCc1sc(CCc2cc(OC)cc(NCc3cc(Cl)cc(NC(=O)OC(C)C)c3)n2)nc1C,–
4.4,CCc1sc(CCc2cc(OC3CCOCC3)cc(NCc3cc(Cl)cc(NC(=O)OC(C)C)c3)n2)nc1C,42
30,CCc1sc(CCc2cc(OCCc3ccccc3)cc(NCc3cc(Cl)cc(NC(=O)OC(C)C)c3)n2)nc1C,–
8.4,CCc1sc(CCc2cc(OC(C)COC)cc(NCc3cc(Cl)cc(NC(=O)OC(C)C)c3)n2)nc1C (stereo not drawn),59
11,CCc1sc(CCc2cc(OC3CCCC3)cc(NCc3cc(Cl)cc(NC(=O)OC(C)C)c3)n2)nc1C,–
33,CCOc1cc(CCc2nc(C)c(CC)s2)nc(NCc2cc(Cl)cc(NC(=O)OC(C)C)c2)c1,–
35,CCCCCOc1cc(CCc2nc(C)c(CC)s2)nc(NCc2cc(Cl)cc(NC(=O)OC(C)C)c2)c1,–
